Common to all, as to type: cell-based
In one experiment the test system is BaF3_EGFRWT cells. As to the kind of experiment: Cell growth inhibition assay, BaF3_EGFRWT. The settings on record: 80 ng/mL recombinant human EGF, 3 days treatment, CellTiterGlo 2.0, read-out: EGFR WT IC50 (nM), cell growth inhibition.
The subject of a further experiment is BaF3_HER2WT cells. The experiment can be described thus: Cell growth inhibition assay, BaF3_HER2WT. The settings on record: 3 days treatment, CellTiterGlo 2.0, read-out: HER2 WT IC50 (nM), cell growth inhibition. (In general: In ATP-based viability assays light output follows the ATP content of the culture.)
A further experiment concerns BaF3_HER2YVMA cells. The experiment can be described thus: Cell growth inhibition assay, BaF3_HER2YVMA. Conditions: read-out: HER2-YVMA IC50 (nM), cell growth inhibition.
Where [1] appears, read: 72 h, BaF3_HER2YVMA cells, 3 days treatment, CellTiterGlo 2.0.
The mark [2] stands for this setting: BaF3_HER2YVMA cells, 3 days treatment, CellTiterGlo 2.0.

Read-outs that look alike come from different tables or passages of the source.

What is called IC50 is the concentration needed to halve the response being measured.

Take `C=C(C#N)C(=O)N1CCC(c2ccn3ncnc(Nc4ccc(Oc5ccn6ncnc6c5)c(C)c4)c23)CC1` [Example 27, 2-(4-(4-((4-([1,2,4]triazolo[1,5-a]pyridin-7-yloxy)-3-methylphenyl)amino)pyrrolo[2,1-f][1,2,4]triazin-5-yl)piperidine-1-carbonyl)acrylonitrile]: the IC50 was 1500 to 5000 nM with BaF3_EGFRWT cells (72 h), 500 to 1500 nM in the experiment on BaF3_HER2WT cells (72 h) and 1500 to 5000 nM with BaF3_HER2YVMA cells (72 h).
With `C=C(C(=O)O)C(=O)N1CCC(c2ccn3ncnc(Nc4ccc(Oc5ccn6ncnc6c5)c(C)c4)c23)CC1` [Example 20, 2-(4-(4-((4-([1,2,4]triazolo[1,5-a]pyridin-7-yloxy)-3-methylphenyl)amino)pyrrolo[2,1-f][1,2,4]triazin-5-yl)piperidine-1-carbonyl)acrylic acid], the IC50 in the experiment with BaF3_EGFRWT cells (72 h), with BaF3_HER2WT cells (72 h) and in the experiment with BaF3_HER2YVMA cells (setting [1]) was 1500 to 5000 nM each time.
On to `Cc1cc(Nc2ncnn3ccc(N4CCN(C(=O)C(F)Cl)CC(F)(F)C4)c23)ccc1Oc1ccn2ncnc2c1` (stereo not drawn) [Example 63, 1-(4-(4-((4-([1,2,4]triazolo[1,5-a]pyridin-7-yloxy)-3-methylphenyl)amino)pyrrolo[2,1-f][1,2,4]triazin-5-yl)-6,6-difluoro-1,4-diazepan-1-yl)-2-chloro-2-fluoroethan-1-one], for which the half-inhibitory concentration (IC50) in the experiment with BaF3_EGFRWT cells (72 h) is 1500 to 5000 nM; with BaF3_HER2WT cells (72 h) it was 500 to 1500 nM; in the experiment with BaF3_HER2YVMA cells (setting [1]), 500 to 1500 nM.
In the case of `Cc1cc(Nc2ncnn3ccc(C4CCN(C(=O)/C=C/CN5CCC6(COC6)C5)CC4)c23)ccc1Oc1ccn2ncnc2c1` [Example 120, E-1-(4-(4-((4-([1,2,4]triazolo[1,5-a]-208-midazol-7-yloxy)-3-methylphenyl)amino)pyrrolo[2,1-f][1,2,4]triazin-5-yl)piperidin-1-yl)-4-(2-oxa-6-azaspiro[3.4]octan-6-yl)but-2-en-1-one], the IC50 with BaF3_EGFRWT cells (72 h) was 1500 to 5000 nM; with BaF3_HER2WT cells (72 h), under 200 nM; in the experiment on BaF3_HER2YVMA cells (setting [1]), under 200 nM.
As to `C=CC(=O)N1C[C@H]2C[C@@H]1C[C@H]2c1ccn2ncnc(Nc3ccc(Oc4ccn5ncnc5c4)c(C)c3)c12` (relative stereo) [Example 104, Rel-1-[(1S,4S,5R)-5-{4-[(3-methyl-4-{[1,2,4]triazolo[1,5-a]pyridin-7-yloxy}phenyl)amino]pyrrolo[2,1-f][1,2,4]triazin-5-yl}]-2-azabicyclo[2.2.1]heptan-2-yl]prop-2-en-1-one], the IC50 lay within 1500 to 5000 nM with BaF3_EGFRWT cells (72 h), 500 to 1500 nM with BaF3_HER2WT cells (72 h) and 1500 to 5000 nM with BaF3_HER2YVMA cells (setting [1]).
On to `Cc1cc(Nc2ncnn3ccc(C4CCN(C(=O)/C=C/C5CCCN5C)CC4)c23)ccc1Oc1ccn2ncnc2c1` (stereo not drawn) [Example 65, (E)-1-(4-(4-((4-([1,2,4]triazolo[1,5-a]pyridin-7-yloxy)-3-methylphenyl)amino)pyrrolo[2,1-f][1,2,4]triazin-5-yl)piperidin-1-yl)-3-(1-methylpyrrolidin-2-yl)prop-2-en-1-one], for which the IC50 in the experiment on BaF3_EGFRWT cells (72 h) was 1500 to 5000 nM; in the experiment on BaF3_HER2WT cells (72 h), under 200 nM; in the experiment on BaF3_HER2YVMA cells (setting [1]) it was under 200 nM.
Regarding `Cc1cc(Nc2ncnn3ccc(C4CCN(C(=O)/C=C/CN(C)C)C4)c23)ccc1Oc1ccn2ncnc2c1` (single isomer, unassigned) [Examples 99 and 100, second eluting isomer, (E)-1-(3-(4-((4-([1,2,4]triazolo[1,5-a]pyridin-7-yloxy)-3-methylphenyl)amino)pyrrolo[2,1-f][1,2,4]triazin-5-yl)pyrrolidin-1-yl)-4-(dimethylamino)but-2-en-1-one], the IC50 with BaF3_EGFRWT cells is 1500 to 5000 nM; in the experiment with BaF3_HER2WT cells, under 200 nM; in the experiment on BaF3_HER2YVMA cells (setting [2]), 500 to 1500 nM.
Consider `Cc1cc(Nc2ncnn3ccc(C4CCN(C(=O)/C=C/C(=O)O)CC4)c23)ccc1Oc1ccn2ncnc2c1` [Example 142, (E)-4-(4-(4-((4-([1,2,4]triazolo[1,5-a]pyridin-7-yloxy)-3-methylphenyl)amino)pyrrolo[2,1-f][1,2,4]triazin-5-yl)piperidin-1-yl)-4-oxobut-2-enoic acid], for which the half-inhibitory concentration (IC50) in the experiment on BaF3_EGFRWT cells (72 h), with BaF3_HER2WT cells (72 h) and with BaF3_HER2YVMA cells (setting [1]) was 1500 to 5000 nM in each case.
As for `Cc1cc(Nc2ncnn3ccc(C4CN(C(=O)/C=C/CN(C)C)C4)c23)ccc1Oc1ccn2cnnc2c1` [Example 134, (E)-1-(3-(4-((4-([1,2,4]triazolo[4,3-a]pyridin-7-yloxy)-3-methylphenyl)amino)pyrrolo[2,1-f][1,2,4]triazin-5-yl)azetidin-1-yl)-4-(dimethylamino)but-2-en-1-one], the IC50 in the experiment with BaF3_EGFRWT cells (72 h) was 1500 to 5000 nM; in the experiment on BaF3_HER2WT cells (72 h), 200 to 500 nM; in the experiment on BaF3_HER2YVMA cells (setting [1]), 1500 to 5000 nM.
With `COC1CN(C/C=C/C(=O)N2CCC(c3ccn4ncnc(Nc5ccc(Oc6ccn7ncnc7c6)c(C)c5)c34)CC2)C1` [Example 117, (E)-1-(4-(4-((4-([1,2,4]triazolo[1,5-a]-207-midazol-7-yloxy)-3-methylphenyl)amino)pyrrolo[2,1-f][1,2,4]triazin-5-yl)piperidin-1-yl)-4-(3-methoxyazetidin-1-yl)but-2-en-1-one], the half-maximal inhibitory concentration (IC50) in the experiment on BaF3_EGFRWT cells (72 h) was 1500 to 5000 nM; in the experiment with BaF3_HER2WT cells (72 h), under 200 nM; in the experiment on BaF3_HER2YVMA cells (setting [1]), under 200 nM.
For the compound `C=CC(=O)N1CC(N(C)c2ccn3ncnc(Nc4ccc(Oc5ccn6ncnc6c5)c(C)c4)c23)C1` [Example 77, 1-(3-((4-((4-([1,2,4]triazolo[1,5-a]pyridin-7-yloxy)-3-methylphenyl)amino)pyrrolo[2,1-f][1,2,4]triazin-5-yl)(methyl)amino)azetidin-1-yl)prop-2-en-1-one], the IC50 in the experiment with BaF3_EGFRWT cells (72 h) lay within 1500 to 5000 nM; in the experiment on BaF3_HER2WT cells (72 h), 200 to 500 nM; in the experiment on BaF3_HER2YVMA cells (setting [1]), 1500 to 5000 nM.
For the compound `Cc1cc(Nc2ncnn3ccc(C4CN(C(=O)/C=C/C5CCCN5C)C4)c23)ccc1Oc1ccn2ncnc2c1` (stereo not drawn) [Example 66, (E)-1-(3-(4-((4-([1,2,4]triazolo[1,5-a]pyridin-7-yloxy)-3-methylphenyl)amino)pyrrolo[2,1-f][1,2,4]triazin-5-yl)azetidin-1-yl)-3-(1-methylpyrrolidin-2-yl)prop-2-en-1-one], the figures for the IC50 in the experiment with BaF3_EGFRWT cells (72 h), with BaF3_HER2WT cells (72 h) and in the experiment on BaF3_HER2YVMA cells (setting [1]) were 1500 to 5000 nM, under 200 nM and under 200 nM, respectively.
Turning to `Cc1cc(Nc2ncnn3ccc(N4CCC(N(C)C(=O)/C=C/CN(C)C)C4)c23)ccc1Oc1ccn2ncnc2c1` (stereo not drawn) [Example 70, (E)-N-(1-(4-((4-([1,2,4]triazolo[1,5-a]pyridin-7-yloxy)-3-methylphenyl)amino)pyrrolo[2,1-f][1,2,4]triazin-5-yl)pyrrolidin-3-yl)-4-(dimethylamino)-N-methylbut-2-enamide], the results for the IC50 with BaF3_EGFRWT cells (72 h), in the experiment on BaF3_HER2WT cells (72 h) and with BaF3_HER2YVMA cells (setting [1]) were 1500 to 5000 nM, under 200 nM and under 200 nM, respectively.
As to `Cc1cc(Nc2ncnn3ccc(C4CCCN(C(=O)C(F)Cl)CC4)c23)ccc1Oc1ccn2ncnc2c1` (single isomer, unassigned) [Examples 145, 146, 147 and 148, second eluting isomer, 1-(4-(4-((4-([1,2,4]triazolo[1,5-a]pyridin-7-yloxy)-3-methylphenyl)amino)pyrrolo[2,1-f][1,2,4]triazin-5-yl)azepan-1-yl)-2-chloro-2-fluoroethan-1-one], the IC50 in the experiment with BaF3_EGFRWT cells was 500 to 1500 nM; with BaF3_HER2WT cells, under 200 nM; in the experiment with BaF3_HER2YVMA cells (setting [2]), under 200 nM.

These data come from US20250276983A1, “COMPOUNDS AND METHODS FOR MODULATING HER2” (IAMBIC THERAPEUTICS, INC., priority 2022, published 2025).
